Consider 20 molecules from patent US20110044938A1 (NYCOMED GMBH, priority 2006, published 2011).

The structures appear in SMILES notation. Some results are limits rather than exact numbers.

Assay [1] deals with RKO (RKOp27) human colon adenocarcinoma cells. The assay can be described thus: Alamar Blue cell viability assay, anti-proliferative/cytotoxic activity on proliferating RKO subclones. Format: cell-based. The following applies: RKOp27, 72 h, RKO p27 uninduced (proliferating) cells, value = class bound given in Table A, read-out: −logIC50 RKO p27 uninduced (proliferating) (converted). Here is the method:
The anti-proliferative/cytotoxic activity of the compounds described herein, can be tested on subclones of RKO (RKOp27) human colon adenocarcinoma cells (Schmidt et al., Oncogene 19, 2423-2429; 2000) using the Alamar Blue cell viability assay (described in O'Brien et al. Eur J Biochem 267, 5421-5426, 2000). The compounds are dissolved as 20 mM solutions in dimethylsulfoxide (DMSO) and subsequently diluted in semi-logarithmic steps. DMSO dilutions are further diluted 1:100 into Dulbecco's modified Eagle's medium (DMEM) containing 10% fetal calf serum to a final concentration twice as much as the final concentration in the test. RKO subclones are seeded into 96 well flat bottom plates at a density of 5000 cells per well in a volume of 50 μl per well. 24 hours after seeding the 50 μl each of the compound dilutions in DMEM medium are added into each well of the 96 Well plate. Each compound dilution is tested as quadruplicates. Wells containing untreated control cells are filled with 50 μl DMEM medium containing 1% DMSO. The cells are then incubated with the substances for 72 hours at 37° C. in a hunified atmosphere containing 5% carbon dioxide. To determine the viability of the cells, 10 μl of an Alamar Blue solution (Biosource) are added and the fluorescence is measured at an extinction of 544 nm and an emission of 590 nm. For the calculation of the cell viability the emission value from untreated cells is set as 100% viability and the emission rates of treated cells are set in relation to the values of untreated cells. Viabilities are expressed as % values.
The corresponding IC50 values of the compounds for anti-proliferative/cytotoxic activity are determined from the concentration-effect curves.
(§1) Representative −log IC50 [mol/l] values for anti-proliferation/cytotoxicity determined in the mentioned assays follow from the following table A, in which the numbers of the compound correspond to the numbers of the examples.
In general terms: Alamar Blue is a resazurin reagent that responds to reducing activity.

The test system of assay [2] is subclones of RKO colon adenocarcinoma cells (RKOp27 or RKOp21) arrested by Ponasterone A. The assay can be described thus: Alamar Blue cell viability assay, cell cycle specific mode of action: cells arrested by ectopic p27Kip1 induced by Ponasterone A versus proliferating cells. Format: cell-based. As to conditions: Homo sapiens, RKO p27 induced (arrested) cells, 10 μM Ponasterone A, 72 hours, value = class bound given in Table A, read-out: −logIC50 RKO p27 induced (arrested) (converted). Here is the method:
To determine the cell cycle specific mode of action, subclones of RKO colon adenocarcinoma cells (RKOp27 or RKOp21 as described by Schmidt et al. in Oncogene 19, 2423-2429; 2000) are seeded into 96 well flat bottom plates at a density of 15000 cells per well in a volume of 50 μl per well in DMEM growth medium with 10% FCS containing 10 μM Ponasterone A. 24 hours after seeding the 50 μl each of the compound dilutions in DMEM medium are added into each well of the 96 Well plate. Each compound dilution is tested as quadruplicates. Wells containing untreated control cells are filled with 50 μl DMEM medium containing 1% DMSO. The cells are then incubated with the substances for 72 hours at 37° C. in a humidified athmosphere containing 5% carbon dioxide. To determine the viability of the cells, 10 μl of an Alamar Blue solution (Biosource) are added and the fluorescence was measured at an extinction of 544 nm and an emission of 590 nm. For the calculation of the cell viability the emission value from untreated cells is set as 100% viability and the emission rates of treated cells are set in relation to the values of untreated cells. Viabilities are expressed as % values. Viability is compared of proliferating cells grown in the absence of the inducer Ponasterone A, versus viability of cells arrested by the expression of ectopic p27Kip1 induced by Ponasterone A.
as §1

As for `CNC(=O)OC1CCc2c(sc(NC(=O)/C=C/c3cccnc3)c2C#N)C1` (stereo not shown) [Example 20, Methyl-carbamic acid 3-cyano-2-((E)-3-pyridin-3-yl-allanoylamino)-4,5,6,7-tetrahydro-benzo[b]thiophen-6-yl ester], the IC50 is at most 501 nM in assay [1] and at least 100 µM in assay [2].

For `N#Cc1c(NC(=O)/C=C/c2cccnc2)sc2c1CCC(OC(=O)NC1CC1)C2` (stereo not shown) [Example 21, Cyclopropyl-carbamic acid 3-cyano-2-((E)-3-pyridin-3-yl-allanoylamino)-4,5,6,7-tetrahydro-benzo[b]thiophen-6-yl ester], the figures for the IC50 in assay [1] and in assay [2] were at most 501 nM and at least 100 µM, respectively.

Consider `N#Cc1c(NC(=O)/C=C/c2cccnc2)sc2c1CCC(OC(=O)NCC1CCOCC1)C2` (stereo not shown) [Example 22, (Tetrahydro-pyran-4-ylmethyl)-carbamic acid 3-cyano-2-((E)-3-pyridin-3-yl-allanoylamino)-4,5,6,7-tetrahydro-benzo[b]thiophen-6-yl ester], for which the IC50 was 501 to 2000 nM in assay [1] and at least 100 µM in assay [2].

For `N#Cc1c(NC(=O)/C=C/c2cccnc2)sc2c1CCC(OC(=O)NCCO)C2` (stereo not shown) [Example 23, (2-Hydroxy-ethyl)-carbamic acid 3-cyano-2-((E)-3-pyridin-3-yl-allanoylamino)-4,5,6,7-tetrahydro-benzo[b]thiophen-6-yl ester], the figures for the IC50 in assay [1] and in assay [2] were 501 to 2000 nM and at least 100 µM, respectively.

Take `N#Cc1c(NC(=O)/C=C/c2cccnc2)sc2c1CCC(OC(=O)NC1CCOCC1)C2` (stereo not shown) [Example 26, (Tetrahydro-pyran-4-yl)-carbamic acid 3-cyano-2-((E)-3-pyridin-3-yl-allanoylamino)-4,5,6,7-tetrahydro-benzo[b]thiophen-6-yl ester]: the IC50 was 501 to 2000 nM in assay [1] and at least 100 µM in assay [2].

Take `COCCOC(=O)OC1CCc2c(sc(NC(=O)/C=C/c3cccnc3)c2C#N)C1` (stereo not shown) [Example 27, Carbonic acid 3-cyano-2-((E)-3-pyridin-3-yl-allanoylamino)-4,5,6,7-tetrahydro-benzo[b]thiophen-6-yl ester 2-methoxy-ethyl ester]: the IC50 is at most 501 nM in assay [1] and at least 100 µM in assay [2].

On to `CCOc1ccccc1/C=C/C(=O)Nc1sc2c(c1C#N)CCC(COC(=O)NCCO)C2` (stereo not shown) [Example 28, (2-Hydroxy-ethyl)-carbamic acid 3-cyano-2-[(E)-3-(2-ethoxy-phenyl)-allanoylamino]-4,5,6,7-tetrahydro-benzo[b]thiophen-6-ylmethyl ester], for which the IC50 in assay [1] was 501 to 2000 nM; in assay [2] it was at least 100 µM.

On to `N#Cc1c(NC(=O)/C=C/c2cccnc2)sc2c1CCC(COC(=O)NCCO)C2` (stereo not shown) [Example 29, (2-Hydroxy-ethyl)-carbamic acid 3-cyano-2-((E)-3-pyridin-3-yl-allanoylamino)-4,5,6,7-tetrahydro-benzo[b]thiophen-6-ylmethyl ester], for which the IC50 in assay [1] is 501 to 2000 nM; in assay [2], at least 100 µM.

For the molecule `N#Cc1c(NC(=O)/C=C/c2cccnc2)sc2c1CCC(COC(=O)NCCn1ccnc1)C2` (stereo not shown) [Example 30, (2-Imidazol-1-yl-ethyl)-carbamic acid-3-cyano-2-((E)-3-pyridin-3-yl-allanoylamino)-4,5,6,7-tetrahydro-benzo[b]thiophen-6-ylmethyl ester], the IC50 in assay [1] was 501 to 2000 nM; in assay [2], at least 100 µM.

As to `CCOc1ccccc1/C=C/C(=O)Nc1sc2c(c1C#N)CCC(OC(=O)NCCn1ccnc1)C2` (stereo not shown) [Example 31, (2-Imidazol-1-yl-ethyl)-carbamic acid-3-cyano-2-[(E)-3-(2-ethoxy-phenyl)-allanoylamino]-4,5,6,7-tetrahydro-benzo[b]thiophen-6-yl ester], the IC50 was at most 501 nM in assay [1] and at least 10 µM in assay [2].

As for `CCOc1ccccc1/C=C/C(=O)Nc1sc2c(c1C#N)CCC(COC(=O)NCCn1ccnc1)C2` (stereo not shown) [Example 32, (2-Imidazol-1-yl-ethyl)-carbamic acid 3-cyano-2-[(E)-3-(2-ethoxy-phenyl)-allanoylamino]-4,5,6,7-tetrahydro-benzo[b]thiophen-6-ylmethyl ester], the IC50 in assay [1] is 501 to 2000 nM; in assay [2], at least 100 µM.

Turning to `N#Cc1c(NC(=O)/C=C/c2cccnc2)sc2c1CCC(OC(=O)NCc1cccnc1)C2` (stereo not shown) [Example 35, Pyridin-3-ylmethyl-carbamic acid 3-cyano-2-((E)-3-pyridin-3-yl-allanoylamino)-4,5,6,7-tetrahydro-benzo[b]thiophen-6-yl ester], the IC50 in assay [1] was 501 to 2000 nM; in assay [2] it was at least 100 µM.

For `N#Cc1c(NC(=O)/C=C/c2cccnc2)sc2c1CCC(OC(=O)NCCc1cccnc1)C2` (stereo not shown) [Example 36, (2-Pyridin-3-yl-ethyl)-carbamic acid 3-cyano-2-((E)-3-pyridin-3-yl-allanoylamino)-4,5,6,7-tetrahydro-benzo[b]thiophen-6-yl ester], the IC50 in assay [1] was 501 to 2000 nM; in assay [2] it was at least 50.1 µM.

With `N#Cc1c(NC(=O)/C=C/c2cccnc2)sc2c1CCC(OC(=O)NCCn1ccnc1)C2` (stereo not shown) [Example 37, (2-Imidazol-1-yl-ethyl)-carbamic acid 3-cyano-2-((E)-3-pyridin-3-yl-allanoylamino)-4,5,6,7-tetrahydro-benzo[b]thiophen-6-yl ester], the IC50 is 501 to 2000 nM in assay [1] and at least 100 µM in assay [2].

`Cn1cncc1CNC(=O)OC1CCc2c(sc(NC(=O)/C=C/c3cccnc3)c2C#N)C1` (stereo not shown) [Example 38, (3-Methyl-3H-imidazol-4-ylmethyl)-carbamic acid 3-cyano-2-((E)-3-pyridin-3-yl-allanoylamino)-4,5,6,7-tetrahydro-benzo[b]thiophen-6-yl ester]: the IC50 in assay [1] is 501 to 2000 nM; in assay [2] it was at least 100 µM.

As to `N#Cc1c(NC(=O)/C=C/c2cccnc2)sc2c1CCC(OC(=O)NCc1ncc[nH]1)C2` (stereo not shown) [Example 39, (1H-Imidazol-2-ylmethyl)-carbamic acid 3-cyano-2-((E)-3-pyridin-3-yl-allanoylamino)-4,5,6,7-tetrahydro-benzo[b]thiophen-6-yl ester], the IC50 in assay [1] was 501 to 2000 nM; in assay [2], at least 100 µM.

Regarding `Cn1nccc1CNC(=O)OC1CCc2c(sc(NC(=O)/C=C/c3cccnc3)c2C#N)C1` (stereo not shown) [Example 40, (2-Methyl-2H-pyrazol-3-ylmethyl)-carbamic acid 3-cyano-2-((E)-3-pyridin-3-yl-allanoylamino)-4,5,6,7-tetrahydro-benzo[b]thiophen-6-yl ester], the IC50 in assay [1] was at most 501 nM; in assay [2], at least 100 µM.

For `Cn1cc(CNC(=O)OC2CCc3c(sc(NC(=O)/C=C/c4cccnc4)c3C#N)C2)cn1` (stereo not shown) [Example 41, (1-Methyl-1H-pyrazol-4-ylmethyl)-carbamic acid 3-cyano-2-((E)-3-pyridin-3-yl-allanoylamino)-4,5,6,7-tetrahydro-benzo[b]thiophen-6-yl ester], the IC50 is at most 501 nM in assay [1] and at least 100 µM in assay [2].

As to `Cc1cc(CNC(=O)OC2CCc3c(sc(NC(=O)/C=C/c4cccnc4)c3C#N)C2)no1` (stereo not shown) [Example 42, (5-Methyl-isoxazol-3-ylmethyl)-carbamic acid 3-cyano-2-((E)-3-pyridin-3-yl-allanoylamino)-4,5,6,7-tetrahydro-benzo[b]thiophen-6-yl ester], the IC50 in assay [1] was 501 to 2000 nM; in assay [2] it was at least 100 µM.

For the molecule `Cn1cncc1CNC(=O)OCC1CCc2c(sc(NC(=O)/C=C/c3cccnc3)c2C#N)C1` (stereo not shown) [Example 43, (3-Methyl-3H-imidazol-4-ylmethyl)-carbamic acid 3-cyano-2-((E)-3-pyridin-3-yl-allanoylamino)-4,5,6,7-tetrahydro-benzo[b]thiophen-6-ylmethyl ester], the results for the IC50 in assay [1] and in assay [2] were at most 501 nM and at least 100 µM, respectively.
